Laboratory results: ChEMBL document CHEMBL3885881, “DrugMatrix”

Organism: Rattus norvegicus
Assay: DrugMatrix - Regimen: Daily Repeat
Type: toxicity, organism-based, Sprague-Dawley
Design: regimen Daily Repeat, gender Male, age 6-8 weeks
Conditions: in vivo, sc, route subcutaneous, […]; for ABSOLUTE BASOPHIL / ABSOLUTE EOSINOPHIL / ABSOLUTE LYMPHOCYTE / ABSOLUTE MONOCYTE / ABSOLUTE SEGMENTED NEUTROPHIL / BASOPHIL / EOSINOPHIL / ERYTHROCYTE COUNT / HEMATOCRIT / HEMOGLOBIN / LEUKOCYTE COUNT / LYMPHOCYTE / MEAN CORPUSCULAR HEMOGLOBIN / MEAN CORPUSCULAR HEMOGLOBIN CONCENTRATION / MEAN CORPUSCULAR VOLUME / MONOCYTE / NEUTROPHIL / NUCLEATED RED BLOOD CELLS / PLATELET COUNT: tissue Blood; for ALANINE AMINOTRANSFERASE / ALBUMIN / ALKALINE PHOSPHATASE / ASPARTATE AMINOTRANSFERASE / BLOOD UREA NITROGEN / CARBON DIOXIDE / CHLORIDE / CHOLESTEROL / CREATINE PHOSPHOKINASE / CREATININE / GLUCOSE / LACTATE DEHYDROGENASE / LIPASE / PHOSPHORUS / POTASSIUM / SODIUM / TOTAL BILIRUBIN / TOTAL PROTEIN / URIC ACID: tissue Plasma
[1] = 50 mg/kg, 120 h, dose level Low, time 5 day
[2] = 201 mg/kg, 72 h, dose level High, time 3 day
[3] = 201 mg/kg, 120 h, dose level High, time 5 day

CCCCOC(=O)c1ccc(N)cc1 [BUTAMBEN]
ABSOLUTE BASOPHIL [1]: 0 CELLS/uL | ABSOLUTE EOSINOPHIL [1]: 200.67 CELLS/uL | ABSOLUTE LYMPHOCYTE [1]: 13363.67 CELLS/uL | ABSOLUTE MONOCYTE [1]: 123.33 CELLS/uL | ABSOLUTE SEGMENTED NEUTROPHIL [1]: 2512.33 CELLS/uL | BASOPHIL [1]: 0% | EOSINOPHIL [1]: 1.33% | ERYTHROCYTE COUNT [1]: 5.82 x10E6/uL | HEMATOCRIT [1]: 36.47% | HEMOGLOBIN [1]: 13.23 G/DL | LEUKOCYTE COUNT [1]: 16.2 x10E3/uL | LYMPHOCYTE [1]: 82.33% | MEAN CORPUSCULAR HEMOGLOBIN [1]: 22.8 pg | MEAN CORPUSCULAR HEMOGLOBIN CONCENTRATION [1]: 36.3 G/DL | MEAN CORPUSCULAR VOLUME [1]: 62.77 fL | MONOCYTE [1]: 0.67% | NEUTROPHIL [1]: 15.67% | NUCLEATED RED BLOOD CELLS [1]: 0 /100WBC | PLATELET COUNT [1]: 1424.33 x10E3/uL | ALANINE AMINOTRANSFERASE [1]: 47.67 u/L | ALBUMIN [1]: 4.3 G/DL | ALKALINE PHOSPHATASE [1]: 349 u/L | ASPARTATE AMINOTRANSFERASE [1]: 78.67 u/L | BLOOD UREA NITROGEN [1]: 19.67 mg/dL | CARBON DIOXIDE [1]: 23.67 mmol/L | CHLORIDE [1]: 105.67 MEQ/L | CHOLESTEROL [1]: 76.67 mg/dL | CREATINE PHOSPHOKINASE [1]: 340 u/L | CREATININE [1]: 0.21 mg/dL | GLUCOSE [1]: 179.67 mg/dL | LACTATE DEHYDROGENASE [1]: 100.67 u/L | LIPASE [1]: 8.33 u/L | PHOSPHORUS [1]: 12.87 mg/dL | POTASSIUM [1]: 6.56 MEQ/L | SODIUM [1]: 145.27 MEQ/L | TOTAL BILIRUBIN [1]: 0.23 mg/dL | TOTAL PROTEIN [1]: 6.03 G/DL | URIC ACID [1]: 1.9 mg/dL | ABSOLUTE BASOPHIL [2]: 0 CELLS/uL | ABSOLUTE EOSINOPHIL [2]: 70 CELLS/uL | ABSOLUTE LYMPHOCYTE [2]: 16456 CELLS/uL | ABSOLUTE MONOCYTE [2]: 124.67 CELLS/uL | ABSOLUTE SEGMENTED NEUTROPHIL [2]: 2816 CELLS/uL | BASOPHIL [2]: 0% | EOSINOPHIL [2]: 0.33% | ERYTHROCYTE COUNT [2]: 5.58 x10E6/uL | HEMATOCRIT [2]: 36% | HEMOGLOBIN [2]: 13.23 G/DL | LEUKOCYTE COUNT [2]: 19.47 x10E3/uL | LYMPHOCYTE [2]: 84.67% | MEAN CORPUSCULAR HEMOGLOBIN [2]: 23.77 pg | MEAN CORPUSCULAR HEMOGLOBIN CONCENTRATION [2]: 36.8 G/DL | MEAN CORPUSCULAR VOLUME [2]: 64.57 fL | MONOCYTE [2]: 0.67% | NEUTROPHIL [2]: 14.33% | NUCLEATED RED BLOOD CELLS [2]: 0.67 /100WBC | PLATELET COUNT [2]: 1165.33 x10E3/uL | ALANINE AMINOTRANSFERASE [2]: 57 u/L | ALBUMIN [2]: 4.07 G/DL | ALKALINE PHOSPHATASE [2]: 412 u/L | ASPARTATE AMINOTRANSFERASE [2]: 89.67 u/L | BLOOD UREA NITROGEN [2]: 16.33 mg/dL | CARBON DIOXIDE [2]: 27.67 mmol/L | CHLORIDE [2]: 103 MEQ/L | CHOLESTEROL [2]: 70.67 mg/dL | CREATINE PHOSPHOKINASE [2]: 345 u/L | CREATININE [2]: 0.18 mg/dL | GLUCOSE [2]: 160.33 mg/dL | LACTATE DEHYDROGENASE [2]: 218 u/L | LIPASE [2]: 8.33 u/L | PHOSPHORUS [2]: 12.83 mg/dL | POTASSIUM [2]: 6.76 MEQ/L | SODIUM [2]: 143.8 MEQ/L | TOTAL BILIRUBIN [2]: 0.23 mg/dL | TOTAL PROTEIN [2]: 5.8 G/DL | URIC ACID [2]: 1.53 mg/dL | ABSOLUTE BASOPHIL [3]: 0 CELLS/uL | ABSOLUTE EOSINOPHIL [3]: 338.33 CELLS/uL | ABSOLUTE LYMPHOCYTE [3]: 17074 CELLS/uL | ABSOLUTE MONOCYTE [3]: 209.67 CELLS/uL | ABSOLUTE SEGMENTED NEUTROPHIL [3]: 3344.67 CELLS/uL | BASOPHIL [3]: 0% | EOSINOPHIL [3]: 1.67% | ERYTHROCYTE COUNT [3]: 5.22 x10E6/uL | HEMATOCRIT [3]: 33.53% | HEMOGLOBIN [3]: 12.47 G/DL | LEUKOCYTE COUNT [3]: 20.97 x10E3/uL | LYMPHOCYTE [3]: 81.33% | MEAN CORPUSCULAR HEMOGLOBIN [3]: 23.9 pg | MEAN CORPUSCULAR HEMOGLOBIN CONCENTRATION [3]: 37.17 G/DL | MEAN CORPUSCULAR VOLUME [3]: 64.37 fL | MONOCYTE [3]: 1% | NEUTROPHIL [3]: 16% | NUCLEATED RED BLOOD CELLS [3]: 0 /100WBC | PLATELET COUNT [3]: 1321.67 x10E3/uL | ALANINE AMINOTRANSFERASE [3]: 47 u/L | ALBUMIN [3]: 4.17 G/DL | ALKALINE PHOSPHATASE [3]: 353 u/L | ASPARTATE AMINOTRANSFERASE [3]: 79.67 u/L | BLOOD UREA NITROGEN [3]: 18 mg/dL | CARBON DIOXIDE [3]: 26.67 mmol/L | CHLORIDE [3]: 104.33 MEQ/L | CHOLESTEROL [3]: 51 mg/dL | CREATINE PHOSPHOKINASE [3]: 415 u/L | CREATININE [3]: 0.21 mg/dL | GLUCOSE [3]: 163 mg/dL | LACTATE DEHYDROGENASE [3]: 103 u/L | LIPASE [3]: 8 u/L | PHOSPHORUS [3]: 12.37 mg/dL | POTASSIUM [3]: 6.72 MEQ/L | SODIUM [3]: 144.47 MEQ/L | TOTAL BILIRUBIN [3]: 0.37 mg/dL | TOTAL PROTEIN [3]: 6.07 G/DL | URIC ACID [3]: 1.93 mg/dL
